Results from US12209096B2, “Compounds and compositions for inducing chondrogenesis” (NOVARTIS AG, priority 2017, dated 2025).
Values belong to the molecule of their own block, whether it stands above or below them.

Legend:
[1] = test system: NHACs; assay: calcium flux assay; assay type: cell-based, human; conditions: Homo sapiens; for Emax: read-out: (A) % Efficacy
Procedure, shortened: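 Normal human articular chondrocytes plated at 2000 cells/well and loaded 24 h later with Calcium 5 dye in HBSS/HEPES with 5 mM probenecid for 1 h at room temperature. Test compound added at indicated dose; fluorescence (ex 470–495/em 515–575 nm) recorded on FLIPR before and after addition.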

[2] = test system: C3H10T1/2 cell line; assay: alkaline phosphatase assay in C3H10T1/2; assay type: cell-based; conditions: Mus musculus, C3H 10T1/2, 144 h, alkaline phosphatase assay in C3H10T1/2, 6 days; for Emax: read-out: (D) % Efficacy; for IC50: read-out: (D) IC50
Experimental: To initiate differentiation in C3H10T1/2, Clone 8 (ATCC cat #CCL-226), 4,000 cells were plated/well in 384 Perkin Elmer CellCarrier Ultra plate in DMEM/High glucose (HyClone cat #SH30022.01) containing 10% FBS and 1× Antibiotic/Antimycotic (HyClone cat #SV30079.01). After 24 hours the test compound was then added to each well at the indicated dose. The cultures were grown at 37° C. for 6 days.
To detect the presence of hypertrophic cells, C3H10T1/2 were fixed with 4% paraformaldehyde and Hoeschst dye for 20 minutes, rinsed in PBS, then stained with Fast Blue RR Salt with Naphthol AS-MX Phosphate Alkaline Solution.
The ALP staining was imaged by fluoresecent microscopy, using the 561 wavelength, and/or quantified by high content imagining with the ImageXpress Micro Confocal (Molecular Devices, Sunnyvale, CA). Data analyses were performed with the customized multiwavelength cell-scoring application looking at the number of ALP positive cells per well.

SMILES: Cc1cc([C@@H]2[C@@H]3O[C@@H](C[C@@H]3F)[C@H]2C(=O)Nc2ccc(Cl)c(Cl)c2)ccn1 (single isomer, unassigned) [Example 94]
- EC50 [1]: 18 µM
- Emax [1]: 157%
- Emax [2]: 0%
- IC50 [2]: > 20 µM

SMILES: O=C(Nc1cnc(Cl)c(Cl)c1)[C@H]1[C@@H]2O[C@@H]([C@H]3C[C@H]32)[C@@H]1c1ccnc(F)c1F [Example 124, (1S,2S,4R,5R,6R,7S)—N-(5,6-dichloropyridin-3-yl)-7-(2,3-difluoropyridin-4-yl)-8-oxatricyclo[3.2.1.0^2,4]octane-6-carboxamide]
- EC50 [1]: 2.8 µM
- Emax [1]: 160%
- Emax [2]: 59%
- IC50 [2]: 17 µM

SMILES: O=C(Nc1ccc(Cl)c(Cl)c1)[C@H]1[C@@H](c2ccnc(C(F)(F)F)c2)[C@H]2O[C@@H]1C[C@@H]2O (racemic) [Example 54, rac-(1R,2S,3S,4R,5S)—N-(3,4-dichlorophenyl)-5-hydroxy-3-(2-(trifluoromethyl)pyridin-4-yl)-7-oxabicyclo[2.2.1]heptane-2-carboxamide]
- EC50 [1]: > 50 µM
- Emax [1]: 22%
- Emax [2]: 35%
- IC50 [2]: > 20 µM

SMILES: COc1cc([C@H]2[C@H]3O[C@H](C[C@H]3F)[C@@H]2C(=O)Nc2ccc(Cl)c(Cl)c2)ccn1 [Example 165, (1R,2R,3S,4R,5R)—N-(3,4-dichlorophenyl)-5-fluoro-3-(2-methoxypyridin-4-yl)-7-oxabicyclo[2.2.1]heptane-2-carboxamide]
- EC50 [1]: 6 µM
- Emax [1]: 110%
- Emax [2]: 59%
- IC50 [2]: > 20 µM

SMILES: Nc1cc([C@H]2[C@H]3O[C@H](C[C@@H]3O)[C@@H]2C(=O)Nc2ccc(Cl)c(Cl)c2)ccn1 [Example 149, (1R,2R,3S,4R,5S)-3-(2-aminopyridin-4-yl)-N-(3,4-dichlorophenyl)-5-hydroxy-7-oxabicyclo[2.2.1]heptane-2-carboxamide]
- EC50 [1]: 26 µM
- Emax [1]: 112%
- Emax [2]: 58%
- IC50 [2]: 8.3 µM

SMILES: Cc1cc([C@H]2[C@H]3O[C@H](C[C@H]3NCCO)[C@@H]2C(=O)Nc2ccc(Cl)c(Cl)c2)ccn1 [Example 168, (1R,2R,3S,4R,5R)—N-(3,4-dichlorophenyl)-5-((2-hydroxyethyl)amino)-3-(2-methylpyridin-4-yl)-7-oxabicyclo[2.2.1]heptane-2-carboxamide]
- EC50 [1]: 0.32 µM
- Emax [1]: 114%
- Emax [2]: 0%
- IC50 [2]: > 20 µM

SMILES: COc1cc([C@H]2[C@H]3O[C@H](C[C@@H]3F)[C@@H]2C(=O)Nc2ccc(Cl)c(Cl)c2)ccn1 [Example 103, (1R,2R,3S,4R,5S)—N-(3,4-dichlorophenyl)-5-fluoro-3-(2-methoxypyridin-4-yl)-7-oxabicyclo[2.2.1]heptane-2-carboxamide]
- EC50 [1]: 24 µM
- Emax [1]: 153%
- Emax [2]: 79%
- IC50 [2]: 10 µM

SMILES: Cc1cc([C@H]2[C@H]3O[C@H]([C@@H]4C[C@@H]43)[C@@H]2C(=O)Nc2ccc(Cl)c(Cl)c2)ccn1 [Example 117, (1S,2S,4R,5R,6R,7S)—N-(3,4-dichlorophenyl)-7-(2-methylpyridin-4-yl)-8-oxatricyclo[3.2.1.0^2,4]octane-6-carboxamide]
- EC50 [1]: 3 µM
- Emax [1]: 177%
- Emax [2]: 59%
- IC50 [2]: 7 µM

SMILES: COc1ccc(NC(=O)[C@H]2[C@@H]3O[C@@H]([C@H]4C[C@H]43)[C@@H]2c2ccc(C)nc2)cn1 [Example 123, (1S,2S,4R,5R,6R,7S)—N-(6-methoxypyridin-3-yl)-7-(6-methylpyridin-3-yl)-8-oxatricyclo[3.2.1.0^2,4]octane-6-carboxamide]
- EC50 [1]: > 50 µM
- Emax [1]: 0%
- Emax [2]: 48%
- IC50 [2]: > 20 µM

SMILES: COc1ccc(NC(=O)[C@H]2[C@@H]3O[C@@H]([C@H]4C[C@H]43)[C@@H]2c2cccc(C(F)(F)F)n2)cn1 [Example 128, (1S,2S,4R,5R,6R,7S)—N-(6-methoxypyridin-3-yl)-7-(6-(trifluoromethyl)pyridin-2-yl)-8-oxatricyclo[3.2.1.0^2,4]octane-6-carboxamide]
- EC50 [1]: > 50 µM
- Emax [1]: 27%
- Emax [2]: 39%
- IC50 [2]: > 20 µM

SMILES: Cc1ncc([C@H]2[C@H]3O[C@H](C[C@@H]3O)[C@@H]2C(=O)Nc2ccc(Cl)c(Cl)c2)cn1 [Example 148, (1R,2R,3S,4R,5S)—N-(3,4-dichlorophenyl)-5-hydroxy-3-(2-methylpyrimidin-5-yl)-7-oxabicyclo[2.2.1]heptane-2-carboxamide]
- EC50 [1]: 7.8 µM
- Emax [1]: 51%
- Emax [2]: 58%
- IC50 [2]: 18 µM

SMILES: Cc1cc([C@H]2[C@H]3O[C@H](C[C@H]3NC3CCOCC3)[C@@H]2C(=O)Nc2ccc(Cl)c(Cl)c2)ccn1 [Example 169, (1R,2R,3S,4R,5R)—N-(3,4-dichlorophenyl)-3-(2-methylpyridin-4-yl)-5-((tetrahydro-2H-pyran-4-yl)amino)-7-oxabicyclo[2.2.1]heptane-2-carboxamide]
- EC50 [1]: > 50 µM
- Emax [1]: 69%
- Emax [2]: 54%
- IC50 [2]: > 20 µM

SMILES: O=C(Nc1ccc(Cl)c(Cl)c1)[C@@H]1[C@@H](c2cnc(C(F)(F)F)nc2)[C@H]2O[C@@H]1C[C@@H]2O [Example 154, (1R,2R,3S,4R,5S)—N-(3,4-dichlorophenyl)-5-hydroxy-3-(2-(trifluoromethyl)pyrimidin-5-yl)-7-oxabicyclo[2.2.1]heptane-2-carboxamide]
- EC50 [1]: 26 µM
- Emax [1]: 236%
- Emax [2]: 75%
- IC50 [2]: 4 µM

SMILES: Cc1ccc([C@H]2[C@H]3O[C@H]([C@@H]4C[C@@H]43)[C@@H]2C(=O)Nc2cnc(Cl)c(Cl)c2)cn1 [Example 74, (1S,2S,4R,5R,6R,7S)—N-(5,6-dichloropyridin-3-yl)-7-(6-methylpyridin-3-yl)-8-oxatricyclo[3.2.1.0^2,4]octane-6-carboxamide]
- EC50 [1]: 7.7 µM
- Emax [1]: 90%
- Emax [2]: 83%
- IC50 [2]: > 20 µM

SMILES: Cn1cc([C@H]2[C@H]3O[C@H](C[C@@H]3O)[C@@H]2C(=O)Nc2ccc(Cl)c(Cl)c2)cn1 [Example 152, (1R,2R,3S,4R,5S)—N-(3,4-dichlorophenyl)-5-hydroxy-3-(1-methyl-1H-pyrazol-4-yl)-7-oxabicyclo[2.2.1]heptane-2-carboxamide]
- EC50 [1]: 12 µM
- Emax [1]: 44%
- Emax [2]: 61%
- IC50 [2]: 2 µM

SMILES: Cc1cc([C@H]2[C@H]3O[C@H]([C@@H]4C[C@@H]43)[C@@H]2C(=O)Nc2ncc(C)s2)ccn1 [Example 70, (1S,2S,4R,5R,6R,7S)-7-(2-methylpyridin-4-yl)-N-(5-methylthiazol-2-yl)-8-oxatricyclo[3.2.1.0^2,4]octane-6-carboxamide]
- EC50 [1]: > 50 µM
- Emax [1]: 25%
- Emax [2]: 1%
- IC50 [2]: > 20 µM

SMILES: Cc1cc([C@H]2[C@H]3O[C@H](C[C@@H]3O)[C@@H]2C(=O)NC2CCN(S(C)(=O)=O)CC2)ccn1 [Example 79, (1R,2R,3S,4R,5S)-5-hydroxy-3-(2-methylpyridin-4-yl)-N-(1-(methylsulfonyl)piperidin-4-yl)-7-oxabicyclo[2.2.1]heptane-2-carboxamide]
- EC50 [1]: > 50 µM
- Emax [1]: 113%
- Emax [2]: 34%
- IC50 [2]: > 20 µM

Further lines, with some results ahead:

- EC50 [1]: 26 µM
- IC50 [2]: 7.7 µM
SMILES: COc1cc([C@@H]2[C@@H]3O[C@@H](C[C@H]3O)[C@H]2C(=O)Nc2ccc(Cl)c(Cl)c2)ccn1 (single isomer, unassigned) [Example 139b]
- Emax [1]: 141%
- Emax [2]: 82%

- EC50 [1]: 33 µM
- IC50 [2]: > 20 µM
SMILES: Cc1cc([C@H]2[C@H](C(=O)Nc3ccc(Cl)c(Cl)c3)[C@H]3O[C@@H]2C[C@@H]3O)ccn1 [Example 77d, (1R,2S,3R,4R,6S)-N-(3,4-dichlorophenyl)-6-hydroxy-3-(2-methylpyridin-4-yl)-7-oxabicyclo[2.2.1]heptane-2-carboxamide]
- Emax [1]: 92%
- Emax [2]: 54%

- EC50 [1]: 5.6 µM
- IC50 [2]: > 20 µM
SMILES: O=C(Nc1ccc(Cl)c(Cl)c1)[C@@H]1[C@H]2O[C@H]([C@@H]3C[C@@H]32)[C@H]1c1cncnc1 (single isomer, unassigned) [Example 126b]
- Emax [1]: 103%
- Emax [2]: 42%

- EC50 [1]: 2.7 µM
- IC50 [2]: 4.5 µM
SMILES: Cc1cc([C@H]2[C@H]3O[C@H]([C@@H]4C[C@@H]43)[C@@H]2C(=O)Nc2cccc(C(F)(F)F)c2)ccn1 (single isomer, unassigned) [Example 121a]
- Emax [1]: 231%
- Emax [2]: 80%

- EC50 [1]: 3.5 µM
- IC50 [2]: > 20 µM
SMILES: O=C(Nc1ccc(Cl)c(Cl)c1)[C@H]1[C@@H](c2ccnc(C(F)(F)F)c2)[C@H]2O[C@@H]1C[C@@H]2O (single isomer, unassigned) [Example 54a]
- Emax [1]: 45%
- Emax [2]: 35%

- EC50 [1]: 20 µM
- IC50 [2]: > 20 µM
SMILES: Cc1cc([C@@H]2[C@@H](C(=O)Nc3ccc(Cl)c(Cl)c3)[C@@H]3O[C@H]2C[C@H]3O)ccn1 (single isomer, unassigned) [Example 77b]
- Emax [1]: 157%
- Emax [2]: 47%

- EC50 [1]: > 50 µM
- IC50 [2]: > 20 µM
SMILES: O=C(Nc1ccc(Cl)c(Cl)c1)[C@@H]1[C@H](c2ccnc(C(F)(F)F)c2)[C@@H]2O[C@H]1C[C@H]2O (single isomer, unassigned) [Example 54b]
- Emax [1]: 16%
- Emax [2]: 46%
